This is an account of results in US4027039A (priority 1975, dated 1977).

The test system of test [1] is Influenza, Ann Arbor virus. The test can be described thus: Influenza Ann Arbor in mice, oral; schedule by table; late read day 5 (Tables 15, 25, 29, 30), 6 (18, 20, 22, 23, 26, 27, 28, 54), 7 (14, 19, 21, 24, 53, 56), 8 (16, 17, 51), 9 (11, 55). The format is in vivo, mouse.
In test [2] the test system is infectious canine hepatitis. The conditions noted are these: 50 mg/kg; cited from earlier work.
Test [3] deals with Influenza PR 8 virus. The test can be described thus: Influenza PR 8 in mice, oral; schedule by table; late read day 6 (Table 37), 7 (33, 36), 8 (32, 35, 47), 10 (38); control fraction 18/20 (Table 32), 19/20 (Table 35), else 100%. The format is in vivo, mouse. The conditions noted are these: of 41 tests.
In test [4] the test system is Influenza B Massachusetts virus. The test can be described thus: Influenza B Mass. in mice, oral; late read day 5 (Table 39), 7 (Table 40), 11 (Tables 61, 65); control fraction 16/20 (Table 61), else 100%. Type of test: in vivo, mouse. How it is done:
A portion of a commercially available sample of amantadine was recrystallized from isopropanol. The activity of the material against Influenza B Mass. was tested for the sample as obtained, the recrystallized portion, and the mother liquor obtained from recrystallizing the portion.

The test system is the same in test [5]. The conditions noted are these: larger doses and different dose schedules, literature; cited from earlier work.
The test system of test [6] is viral infections. Briefly: Antiviral screening in animals, general statements. The conditions noted are these: mouse, in vivo.

`O=C(CCNNC(=O)c1ccncc1)NCc1ccccc1` [Nialamide, nialamide, reference compound]: the Survivors amounted to 1 in test [1] (total dose 400 pg); 1 in test [1] (total dose 4 ng); 0 in test [1] (total dose 40 ng); 0 in test [1] (total dose 400 ng); 0 in test [1] (total dose 4 μg); 2 in test [1] (total dose 400 μg). In addition, in test [1] (total dose 4 mg), the Survivors is listed as 1. Also, the treated animals survived in test [2] was 15 of 16.
In turn, `NC12CC3CC(CC(C3)C1)C2` [Commercial amantadine, amantadine, reference compound] came in with an occasions with survivors in test [1] (of 18 tests) of 5. In test [3], the “instances of increased geometric mean survival time” value was determined as 11. The “statistically significant number of survivors in one single instance” value in test [3] is recorded as 3. In addition, the “No. animals surviving after 11 days” value is on record as 3 in test [4] (total dose 60 ng); 3 in test [4] (total dose 600 ng); 7 in test [4] (total dose 6 μg); 3 in test [4] (total dose 60 μg); 5 in test [4] (total dose 600 μg); 4 in test [4] (total dose 6 mg). For the same molecule, the Survivors is on record as 3 in test [4] (total dose 600 ng); 5 in test [4] (total dose 6 μg); 2 in test [4] (total dose 60 μg); 5 in test [4] (total dose 600 μg); 2 in test [4] (total dose 6 mg). In addition, the “effect against Influenza B Massachusetts” value in test [5] is on record as “ineffective”. The activity in words entry in test [6] is “inactive against all of the other viruses in the test system”.
